The values that follow come from US20090286839A1, “PHYTONUTRIENT COMPOSITIONS FROM MUSHROOMS OR FILAMENTOUS FUNGI AND METHODS OF USE” (priority 2006, published 2009).

For one series, the system named is cortical neurons. As to the kind of experiment: 2% Low Serum Assay, neuronal viability by MTT method. In kind it is cell-based, chicken. To be noted: 8 days; for viability, mean in % (control is 100%) / viability, mean optical density: addition at 1DIV, n=8. On the procedure:
Lohman or Hisex Brown chicken one-day-old fertilized eggs were obtained and stored in a lab under appropriate conditions of 12° C. and 80% humidity. At embryonic day 0 eggs were transferred into a breeding incubatore and stored under permanent turning until embryonic day 9 at 37.8° C. and 55% humidity. For isolation of neurons 4 to 6 chicken embryos were used per experiment. Neurons were plated out and nerve cells maintained in a nutrition medium at 37° C., 97% humidity, and 5% CO2.
Test Item (T.I.) and Reference Item (R.I.) were administered at the start of the experiments for 8 days. Neurons were maintained in the same medium without change or addition of media until the end of the experiments. During the whole culture period of 8 days cells stay in an incubator at 37° C., 97% humidity, and 5% CO2.
From T.I.1, L-Ergothioneine a 128 mM solution was prepared in medium and directly added to the cells at the start of the experiments for a total of 8 days. […] The pellet was discarded and only from the supernatant 1.25 μl up to 160 μl/ml medium was administered. R.I.2. the neurotrophic standard NTS is a ready to use injection solution and was applied in concentrations from 1.25 μl up ro 160 μl/ml medium. The stock-solution for R.I.3, Trolox, was made in a concentration of 2 mM in PBS and the appropriate concentrations added to the cells at day 1.
To the isolated nerve cell T.I.1 was added in a dose range of 0.5, 1, 2, 4, 8, 16, 32, 64 mM. The supernatant of R.I.1 and the ready to use injection solution of R.I.2 were applied in the concentration 1.25, 2.5, 5, 10, 20, 40, 80, 160 μl/ml medium. R.I.3 was tested in the concentrations of 1, 2, 4, 8, 16, 31.25, 62.5, 125 μM. Experiments were performed at two different days, whereby on each day two identical microplates were prepared with two to four wells per T.I. or R.I. (n=8). In this 2% cell stress assay substances were administered at start of the experiment (day 1 in vitro) for the whole experimental period that means for eight days in vitro.
Neuronal viability of cultures was determined with the MTT-assay using a plate-reader (570 nm) as described in SOP MET009. The MTT-assay is a sensitive assay measuring the mitochondrial dehydrogenase activity in viable cells only. It is performed according to the method described by Mosmann, J. Immunol. Meth., 1983, 55-63. This assay is based on the reduction of yellow MTT (3-(4,5-dimethylthiazol-2-yl)-2,5,diphenyl tetrazolium bromide), to dark blue formazan crystals by mitochondrial dehydrogenases (succinate dehydrogenase). Since this reaction is catalyzed in living cells only the assay can be used for the quantification of cell viability.
For the determination of cell viability MTT solution was added to each well in a final concentration of 0.5 mg/ml. After 2 hours the MTT containing medium was aspired. Cells were lysed with 3% SDS, formazan crystals dissolved in isopropanol/HCI. To estimate optical density a plate reader (Anthos HT II) was used at wavelength 570 nm. Neuronal viability is expressed as optical densities (ODs).
For orientation: Formazan colour is commonly taken as a measure of viable cells.

Series [1] is described as follows: Peroxynitrite radical averting capacity (NORAC) assay. The format is biochemical. To be noted: pure ERG. On the procedure: The NORAC assay was modified on a previously reported method. All data was expressed as micromoles of Trolox equivalents (TE) equivalents per gram of dry weight (μmol of TE/g dw). The freeze-dried forms of the mushrooms were used for testing and then the data was converted to a FW basis according to the dry weight of the fresh mushroom samples, which were obtained from one crop. For each analysis, triplicate extractions were performed and used for analysis.
Under physiological conditions, the formation of ONOO^− can easily result due to the cellular production and interaction of nitric oxide and superoxide radicals. Damage to protein, especially aromatic compounds can result from ONOO^−. A limited number of papers have been published regarding the antioxidant capacity against ONOO^−. The NORAC assay is a relatively new assay. SIN-1 is used in the NORAC assay, which when heated decomposes to produce ONOO^−. DHR-123 (non-fluorescent) is used as the probe, which becomes oxidized by the presence of ONOO^− to become rhodamine 123 (fluoresces). If antioxidants present in the sample are able to scavenge ONOO^−, a delay in fluorescence will occur due to the protection of the probe offered by the antioxidant. Generally, compounds that can scavenge ONOO^− will provide high NORAC values. […]

Series [2] can be described thus: Super-oxide radical averting capacity (SORAC) assay. In kind it is biochemical. The note with it: pure ERG. From the text: SORAC assays were based on the previously described method by Zhao and coworkers. Simply, hydroethidine was used as a probe in measuring O2^− scavenging capacity. […] Addition of SOD inhibits the hydroethidine oxidation. All data was expressed as superoxide equivalents per gram of dry weight (kunitSOD eq/g dw). The freeze-dried forms of the mushrooms were used for testing and the data was reported as dry weight. When reporting amount per serving, the data was converted to a fresh weight basis according to the dry weight of the fresh mushroom samples. For each analysis, triplicate extractions from one crop were performed and used for analysis.
Another biological relevant free radical is O2^− which is less reactive than HO., however O2^− does react very quickly with certain radicals, such as nitric oxide. The SORAC assay is a newly developed assay. Hydroethidine (nonfluorescent) is used as the probe, which is oxidized (fluoresces) in the presence of O2^− that is generated from a xanthine and xanthine oxidase mixture. If antioxidants present in the sample are able to scavenge O2^−, a delay in fluorescence will occur due to the protection of the probe offered by the antioxidant. Generally, compounds that can scavenge O2^− will provide high SORAC values. […]

The conditions of series [3]: cited from earlier work.

Take `C[N+](C)(C)[C@@H](Cc1c[nH]c(=S)[nH]1)C(=O)[O-]` [Ergo, L-ergothioneine]: the “viability, mean in % (control is 100%)” value is given as 98.13% in the series on cortical neurons (0.5 mM); 104.42% with cortical neurons (1 mM); 105.10% in the series with cortical neurons (2 mM); 110.39% with cortical neurons (4 mM); 119.84% with cortical neurons (8 mM); 189.48% in the series with cortical neurons (16 mM). In addition, the “viability, mean in % (control is 100%)” value in the series with cortical neurons (32 mM) was found to be 262.66%; in the series with cortical neurons (64 mM) it was 407.45%. For the same compound, the “viability, mean optical density” value in the series on cortical neurons (0.5 mM) turned out to be 0.053 OD; in the series with cortical neurons (1 mM) it was 0.057 OD; in the series on cortical neurons (2 mM) it was 0.057 OD; in the series with cortical neurons (4 mM), 0.060 OD; with cortical neurons (8 mM), 0.065 OD; in the series on cortical neurons (16 mM), 0.103 OD. Further, the “viability, mean optical density” value with cortical neurons (32 mM) is 0.153 OD; in the series with cortical neurons (64 mM), 0.221 OD. The compound further had a neuroprotective concentration range in the series on cortical neurons (2% low serum, MTT) of no less than 4 mM. For the same compound, the “maximum neuronal viability (% of untreated control)” value in the series with cortical neurons (2% low serum, MTT, best concentration tested) turned out to be 407%. Moreover, in series [1], the “NORAC value of ERG” value was found to be 407 μmole TE/g. In addition, the “SORAC value of ERG” value in series [2] is reported as “non-detectable”. The “solubility in nonpolar solvents” value in series [3] (nonpolar solvents) is listed as “insoluble”. For the same compound, the “water soluble up to” value in series [3] (water, room temperature) is listed as “up to 0.9 M”.
